Data: ChEMBL document CHEMBL5233240, “hERG toxicity assessment: Useful guidelines for drug design” (Eur J Med Chem, 2020)

Target: Voltage-gated inwardly rectifying potassium channel KCNH2 (Homo sapiens, UniProt Q12809)
Assay: Inhibition of human ERG
Format: toxicity

Voltage-gated inwardly rectifying potassium channel KCNH2, sequence (Q12809 whole entry): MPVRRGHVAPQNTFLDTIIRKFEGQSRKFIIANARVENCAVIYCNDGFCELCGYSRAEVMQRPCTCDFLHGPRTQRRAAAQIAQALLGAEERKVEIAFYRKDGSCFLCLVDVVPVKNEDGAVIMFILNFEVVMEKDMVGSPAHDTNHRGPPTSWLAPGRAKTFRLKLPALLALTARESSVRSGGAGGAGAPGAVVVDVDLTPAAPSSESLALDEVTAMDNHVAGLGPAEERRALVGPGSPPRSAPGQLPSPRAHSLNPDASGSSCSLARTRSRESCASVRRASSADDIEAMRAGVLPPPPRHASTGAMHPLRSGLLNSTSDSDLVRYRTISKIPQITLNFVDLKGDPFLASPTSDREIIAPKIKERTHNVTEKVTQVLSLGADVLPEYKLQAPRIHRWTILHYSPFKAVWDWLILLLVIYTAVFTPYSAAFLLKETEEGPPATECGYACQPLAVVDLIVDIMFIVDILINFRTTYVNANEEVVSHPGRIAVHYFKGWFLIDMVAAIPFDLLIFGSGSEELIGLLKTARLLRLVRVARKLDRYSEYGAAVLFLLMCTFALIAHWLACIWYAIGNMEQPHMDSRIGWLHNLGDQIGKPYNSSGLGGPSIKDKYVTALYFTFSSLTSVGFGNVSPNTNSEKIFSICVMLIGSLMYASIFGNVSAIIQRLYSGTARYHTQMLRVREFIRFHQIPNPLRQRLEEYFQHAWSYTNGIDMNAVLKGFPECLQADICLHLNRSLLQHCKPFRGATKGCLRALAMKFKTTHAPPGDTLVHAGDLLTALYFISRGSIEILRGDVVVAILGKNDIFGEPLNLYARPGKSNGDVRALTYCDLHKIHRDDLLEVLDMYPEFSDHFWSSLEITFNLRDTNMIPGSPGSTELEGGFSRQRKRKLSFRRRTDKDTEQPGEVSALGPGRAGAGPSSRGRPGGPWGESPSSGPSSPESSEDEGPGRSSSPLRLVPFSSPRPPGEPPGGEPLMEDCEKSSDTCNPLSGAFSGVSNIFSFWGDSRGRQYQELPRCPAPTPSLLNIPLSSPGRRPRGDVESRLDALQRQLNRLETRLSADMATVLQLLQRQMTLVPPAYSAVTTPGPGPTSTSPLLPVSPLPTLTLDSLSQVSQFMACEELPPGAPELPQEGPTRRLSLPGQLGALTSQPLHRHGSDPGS

Structure (SMILES)	IC50 [µM]
N#Cc1ccc(Cn2cncc2CC[C@H]2CCN(Cc3cccc(Cl)c3)C2=O)cc1	0.44
N#Cc1ccc2cc1Oc1ccc3c(c1)[C@@H](CCC3)N1CC[C@H](C1)NCc1cncn1-2	7
